According to patent US5591891A, “N-[Mercaptoacyl (amino acid or peptide ) ] compounds and S-lipophiIic aliphatic carbonyl derivatives thereof as antihypertensives” (Institut National de la Sante et de la Recherche Medicale …, priority 1994, dated 1997):

What was measured:
[1] = target: peptidyldipeptidase A (ACE) (Homo sapiens, UniProt P12821); assay: Enzymatic inhibition of peptidyldipeptidase A, Z-Phe-His-Leu as substrate; format: biochemical
[2] = target: neutral endopeptidase (NEP) (Homo sapiens, UniProt P08473); assay: Enzymatic inhibition of neutral endopeptidase, [3H]D-Ala2-Leu-enkephalin as substrate; format: biochemical
Procedure: The enzymatic inhibitory properties of compounds according to the present invention are measured using [^3 H]D-Ala^2 -Leu-enkephalin as a substrate for neutral endopeptidase as described previously by Llorens et al., Biochem. Biophys.

NEP = target: T1, NEP (Mus musculus, UniProt Q61391); assay: In vivo inhibition of NEP in mouse kidney after oral administration ([3H]HACBOGly binding); conditions: oral 2.6×10^-5 mole/kg, mean of three determinations
T1 construct: the kidney is rapidly set apart and homogenized at 4° C. in a Tris HCl buffer; from tissue; host or cells: mouse kidney (in vivo, then homogenate)
T1 sequence (Q61391 1-750): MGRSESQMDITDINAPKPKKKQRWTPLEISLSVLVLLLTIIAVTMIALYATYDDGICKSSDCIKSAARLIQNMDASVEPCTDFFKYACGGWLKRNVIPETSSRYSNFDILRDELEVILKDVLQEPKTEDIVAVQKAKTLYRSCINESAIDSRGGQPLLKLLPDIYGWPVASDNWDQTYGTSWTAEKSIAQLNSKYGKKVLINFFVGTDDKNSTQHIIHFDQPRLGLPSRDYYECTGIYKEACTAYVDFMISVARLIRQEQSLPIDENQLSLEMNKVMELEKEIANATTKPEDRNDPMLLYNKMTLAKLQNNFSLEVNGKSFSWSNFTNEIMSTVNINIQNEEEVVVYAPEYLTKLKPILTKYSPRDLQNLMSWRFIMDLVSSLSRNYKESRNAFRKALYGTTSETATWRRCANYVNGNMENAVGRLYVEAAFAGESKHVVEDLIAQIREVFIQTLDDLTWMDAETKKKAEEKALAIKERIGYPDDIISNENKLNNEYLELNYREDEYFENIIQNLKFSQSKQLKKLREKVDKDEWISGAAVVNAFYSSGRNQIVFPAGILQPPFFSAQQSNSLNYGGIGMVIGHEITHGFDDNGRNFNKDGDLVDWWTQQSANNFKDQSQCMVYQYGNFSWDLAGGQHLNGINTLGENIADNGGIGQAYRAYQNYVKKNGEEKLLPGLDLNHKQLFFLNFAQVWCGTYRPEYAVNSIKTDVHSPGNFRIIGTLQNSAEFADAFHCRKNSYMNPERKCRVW
Source text: (§1) [S,S,S]-N-[2-Adamantoylthiomethyl-1-oxo-3-phenylbutyl]alanine, a diastereomeric mixture of N-[2-acetylthiomethyl-1-oxo-3-phenylbutyl]alanine (four diastereomers) and a control solution of saline are orally administered at a concentration of 2.6×10^-5 mole/kg) in mice at t=o.
(§2) The inhibition of NEP in the kidney is expressed as the difference (in %) between specific [^3 H]HACBOGly binding in the absence of inhibitor (controls injected with saline) and in the presence of inhibitor. The inhibition values in Table V are the mean value of three determinations.

ACE = target: T2, ACE (Mus musculus, UniProt P09470); assay: In vivo inhibition of ACE in mouse after oral administration ([3H]Trandaloprilate binding); conditions: oral 2.6×10^-5 mole/kg, mean of three determinations
T2 construct: from tissue; host or cells: mouse tissue in vivo
T2 sequence (P09470 35-1312): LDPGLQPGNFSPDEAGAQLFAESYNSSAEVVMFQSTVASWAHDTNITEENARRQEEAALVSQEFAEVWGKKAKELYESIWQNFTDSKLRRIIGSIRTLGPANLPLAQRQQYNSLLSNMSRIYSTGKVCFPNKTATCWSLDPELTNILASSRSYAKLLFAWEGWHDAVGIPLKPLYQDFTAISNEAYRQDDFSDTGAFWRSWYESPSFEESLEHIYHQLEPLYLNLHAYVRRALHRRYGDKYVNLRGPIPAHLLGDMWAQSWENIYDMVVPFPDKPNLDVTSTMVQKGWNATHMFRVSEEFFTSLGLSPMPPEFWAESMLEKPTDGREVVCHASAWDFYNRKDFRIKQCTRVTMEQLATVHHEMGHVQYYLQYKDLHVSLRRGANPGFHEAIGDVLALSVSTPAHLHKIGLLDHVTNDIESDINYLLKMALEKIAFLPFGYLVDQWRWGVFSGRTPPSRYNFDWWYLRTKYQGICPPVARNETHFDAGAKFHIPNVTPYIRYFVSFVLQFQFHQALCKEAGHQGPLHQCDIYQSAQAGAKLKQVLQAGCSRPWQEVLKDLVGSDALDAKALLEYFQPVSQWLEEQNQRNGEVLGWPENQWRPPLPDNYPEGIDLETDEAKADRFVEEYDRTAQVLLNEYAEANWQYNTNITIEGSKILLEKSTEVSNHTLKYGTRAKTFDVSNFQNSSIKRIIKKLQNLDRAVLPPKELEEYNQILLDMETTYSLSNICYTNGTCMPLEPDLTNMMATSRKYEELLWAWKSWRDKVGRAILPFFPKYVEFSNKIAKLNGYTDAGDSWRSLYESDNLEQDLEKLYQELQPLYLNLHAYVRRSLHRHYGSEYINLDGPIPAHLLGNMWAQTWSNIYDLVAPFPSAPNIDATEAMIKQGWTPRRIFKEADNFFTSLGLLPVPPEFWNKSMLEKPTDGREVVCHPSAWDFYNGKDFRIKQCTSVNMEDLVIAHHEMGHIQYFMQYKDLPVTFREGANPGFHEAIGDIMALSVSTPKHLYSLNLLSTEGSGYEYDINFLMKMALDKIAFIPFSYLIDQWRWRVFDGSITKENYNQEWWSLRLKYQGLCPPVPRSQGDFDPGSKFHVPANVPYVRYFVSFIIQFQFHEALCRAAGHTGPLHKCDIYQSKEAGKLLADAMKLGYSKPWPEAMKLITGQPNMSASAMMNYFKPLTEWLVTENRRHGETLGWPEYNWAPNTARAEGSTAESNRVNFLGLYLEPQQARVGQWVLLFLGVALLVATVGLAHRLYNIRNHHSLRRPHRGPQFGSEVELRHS
Source text: as §1, §2
The protocol in Example 91 is used also to determine […] inhibition except for the following: the selective tritiated ACE inhibitor is [^3 H]Trandaloprilate (0.5 μCi); and the non-specific binding is determined by the co-administration of [^3 H]Trandaloprilate with 1000 eq. of captopril.

Sequence of peptidyldipeptidase A (ACE) (P12821 30-1306, species assumed): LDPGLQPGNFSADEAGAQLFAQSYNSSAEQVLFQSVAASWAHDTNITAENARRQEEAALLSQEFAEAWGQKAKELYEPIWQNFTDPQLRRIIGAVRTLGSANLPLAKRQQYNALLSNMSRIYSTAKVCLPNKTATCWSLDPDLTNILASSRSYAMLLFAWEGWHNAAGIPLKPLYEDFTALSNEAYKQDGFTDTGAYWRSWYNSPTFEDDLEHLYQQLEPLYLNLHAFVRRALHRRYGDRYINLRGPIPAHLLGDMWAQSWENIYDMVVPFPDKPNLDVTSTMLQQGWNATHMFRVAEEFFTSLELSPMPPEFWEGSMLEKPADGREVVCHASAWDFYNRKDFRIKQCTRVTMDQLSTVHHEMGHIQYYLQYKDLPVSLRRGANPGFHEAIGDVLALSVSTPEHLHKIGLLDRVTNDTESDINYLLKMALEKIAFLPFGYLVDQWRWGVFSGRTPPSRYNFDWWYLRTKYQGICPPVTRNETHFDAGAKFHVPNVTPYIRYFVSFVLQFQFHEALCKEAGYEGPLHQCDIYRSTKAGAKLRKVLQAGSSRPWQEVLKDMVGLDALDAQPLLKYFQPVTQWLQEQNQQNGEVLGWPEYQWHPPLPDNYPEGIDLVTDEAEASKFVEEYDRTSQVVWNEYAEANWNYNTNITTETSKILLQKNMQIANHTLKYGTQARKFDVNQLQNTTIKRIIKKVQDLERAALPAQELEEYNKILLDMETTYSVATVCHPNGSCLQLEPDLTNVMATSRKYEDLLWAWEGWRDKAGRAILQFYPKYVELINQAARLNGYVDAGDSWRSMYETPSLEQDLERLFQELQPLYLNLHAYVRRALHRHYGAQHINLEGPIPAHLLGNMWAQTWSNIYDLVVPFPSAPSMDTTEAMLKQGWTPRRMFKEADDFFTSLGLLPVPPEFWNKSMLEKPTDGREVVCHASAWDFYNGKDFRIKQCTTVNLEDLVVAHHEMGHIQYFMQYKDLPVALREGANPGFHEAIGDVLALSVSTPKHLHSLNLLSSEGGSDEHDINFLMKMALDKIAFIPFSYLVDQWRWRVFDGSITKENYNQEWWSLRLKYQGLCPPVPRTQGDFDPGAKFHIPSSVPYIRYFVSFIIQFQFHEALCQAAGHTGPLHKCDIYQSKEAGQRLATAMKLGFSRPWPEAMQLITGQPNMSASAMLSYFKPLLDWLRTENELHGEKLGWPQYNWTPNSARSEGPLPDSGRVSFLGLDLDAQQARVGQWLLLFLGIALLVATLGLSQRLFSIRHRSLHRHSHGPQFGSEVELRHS
Sequence of neutral endopeptidase (NEP) (P08473 whole entry, species assumed): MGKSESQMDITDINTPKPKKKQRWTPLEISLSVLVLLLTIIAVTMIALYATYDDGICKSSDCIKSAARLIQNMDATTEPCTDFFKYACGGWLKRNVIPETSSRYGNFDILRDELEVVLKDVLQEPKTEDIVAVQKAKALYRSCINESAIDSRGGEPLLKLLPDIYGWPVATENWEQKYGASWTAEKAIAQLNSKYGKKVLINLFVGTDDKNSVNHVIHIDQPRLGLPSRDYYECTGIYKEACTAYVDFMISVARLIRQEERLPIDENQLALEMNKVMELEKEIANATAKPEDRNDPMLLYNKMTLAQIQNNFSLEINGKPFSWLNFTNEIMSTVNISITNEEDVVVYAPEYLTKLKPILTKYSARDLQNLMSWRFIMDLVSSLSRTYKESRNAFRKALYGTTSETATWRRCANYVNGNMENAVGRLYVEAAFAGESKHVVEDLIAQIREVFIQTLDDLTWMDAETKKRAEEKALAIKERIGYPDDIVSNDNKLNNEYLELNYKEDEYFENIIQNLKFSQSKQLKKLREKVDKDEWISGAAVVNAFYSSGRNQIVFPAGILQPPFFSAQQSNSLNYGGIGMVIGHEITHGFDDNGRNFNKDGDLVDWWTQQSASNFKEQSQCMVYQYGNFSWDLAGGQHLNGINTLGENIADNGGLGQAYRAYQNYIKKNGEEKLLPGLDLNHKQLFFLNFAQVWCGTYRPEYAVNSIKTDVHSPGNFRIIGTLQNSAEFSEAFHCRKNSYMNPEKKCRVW

## CC(c1ccccc1)C(CSS)C(=O)N[C@@H](Cc1ccc(O)cc1)C(=O)O (stereo partly drawn) [Example 88(A), N-(2-Mercaptothiomethyl-1-oxo-3-phenylbutyl)tyrosine]
[1]; Table IV
  IC50: 3 nM
[2]; Table IV
  IC50: 1 nM

## CCC(C)C(S)C(=O)NC(C(=O)N[C@@H](Cc1ccc(O)cc1)C(=O)O)C(C)C (stereo partly drawn) [Example 25, N-(2-Mercapto-3-methylpentanoyl)-Val-Tyr]
[1]; Table III
  IC50: 2 ± 0.5 nM
[2]; Table III
  IC50: 5 ± 2 nM

## C[C@H](NC(=O)C(CS)C1CCc2ccccc21)C(=O)O (stereo partly drawn) [Example 71, N-[3-Mercapto-2-(1-indanyl)-1-oxopropyl]alanine]
[1]; Table IV
  IC50: 7.9 nM
[2]; Table IV
  IC50: 1.3 nM

## CC(C)[C@H](NC(=O)C(S)Cc1ccccc1)C(=O)N[C@@H](Cc1ccc(O)cc1)C(=O)O (stereo partly drawn) [Example 19, N-(2-Mercapto-3-phenylpropanoyl)-Val-Tyr]
[1]; Table III
  IC50: 4 ± 1 nM
[2]; Table III
  IC50: 5 ± 2 nM

## CC[C@H](C)[C@H](NC(=O)C(S)C(C)C)C(=O)N[C@@H](Cc1ccc(O)cc1)C(=O)O (stereo partly drawn) [Example 27, N-(2-Mercapto-3-methylbutanoyl)-Ile-Tyr]
[1]; Table III
  IC50: 0.3 ± 0.1 nM
[2]; Table III
  IC50: 1.4 ± 0.2 nM

## CC(c1ccccc1)C(CSS)C(=O)N[C@@H](Cc1ccc(O)cc1)C(=O)O (stereo partly drawn) [88(B), N-(2-mercaptothiomethyl-1-oxo-3-phenylbutyl)tyrosine]
[1]; Table IV
  IC50: 52 nM
[2]; Table IV
  IC50: 3.1 nM

## CC(c1ccc(F)c(F)c1)C(CS)C(=O)N[C@@H](C)C(=O)O (stereo partly drawn) [Example 82, N-[2-Mercaptomethyl-3-(3,4-difluorophenyl)-1-oxobutyl]alanine]
[1]; Table IV
  IC50: 5 nM
[2]; Table IV
  IC50: 3 nM

## CC(c1ccccc1)C(CS)C(=O)NCC(=O)O (stereo not drawn) [Example 63, N-(2-Mercaptomethyl-1-oxo-3-phenylbutyl)glycine]
[1]; Table IV
  IC50: 25 nM
[2]; Table IV
  IC50: 1.3 nM

## CC(=O)SCC(C(=O)N[C@@H](C)C(=O)O)C(C)c1ccccc1 (stereo partly drawn) [91(B), N-[2-acetylthiomethyl-1-oxo-3-phenylbutyl]alanine]
NEP; time 30 min
  % Inhibition NEP: 65%
NEP; time 240 min
  % Inhibition NEP: 45%
ACE; time 30 min
  % Inhibition ACE: 30%
ACE; time 240 min
  % Inhibition ACE: 15%

## CC(c1ccccc1)C(CS)C(=O)N[C@@H](COCc1ccccc1)C(=O)O (stereo partly drawn) [Example 65, N-(2-Mercaptomethyl-1-oxo-3-phenylbutyl)-O-benzylserine]
[1]; Table IV
  IC50: 71 nM
[2]; Table IV
  IC50: 4 nM

## CC(c1ccccc1)C(CS)C(=O)N[C@@H](C)C(=O)O (stereo partly drawn) [Example 67, N-(2-Mercaptomethyl-1-oxo-3-phenylbutyl)alanine]
[1]; Table IV
  IC50: 2.8 nM
[2]; Table IV
  IC50: 2 nM

## CCCC[C@H](NC(=O)C(S)Cc1ccccc1)C(=O)N[C@@H](Cc1ccc(O)cc1)C(=O)O (stereo partly drawn) [Example 22, N-(2-Mercapto-3-phenylpropanoyl)-Nle-Tyr]
[1]; Table III
  IC50: 30 ± 5 nM
[2]; Table III
  IC50: 18 ± 2 nM

## CC(c1ccccc1)C(CS)C(=O)N[C@@H](Cc1ccc(O)cc1)C(=O)O (stereo partly drawn) [Example 61, N-(2-Mercaptomethyl-1-oxo-3-phenylbutyl)tyrosine]
[1]; Table IV
  IC50: 1.8 nM

## CC(c1ccc(O)cc1)C(CS)C(=O)N[C@@H](C)C(=O)O (stereo partly drawn) [Example 73, N-[2-Mercaptomethyl,3-(4-hydroxyphenyl)-1-oxobutyl]alanine]
[1]; Table IV
  IC50: 6.2 nM
[2]; Table IV
  IC50: 3.5 nM

## CCC(C)C(S)C(=O)N[C@@H](Cc1ccccc1)C(=O)N[C@@H](Cc1ccc(O)cc1)C(=O)O (stereo partly drawn) [Example 24, N-(2-Mercapto-3-methylpentanoyl)-Phe-Tyr]
[1]; Table III
  IC50: 8 ± 2 nM
[2]; Table III
  IC50: 3 ± 1 nM

## C[C@H](NC(=O)[C@@H](CSC(=O)C12CC3CC(CC(C3)C1)C2)[C@H](C)c1ccccc1)C(=O)O [91(A), [S,S,S]--N-[2-adamantoylthiomethyl-1-oxo-3-phenylbutyl]alanine]
NEP; time 30 min
  % Inhibition NEP: 85%
NEP; time 240 min
  % Inhibition NEP: 70%
ACE; time 30 min
  % Inhibition ACE: 75%
ACE; time 240 min
  % Inhibition ACE: 30%

## CC(C)C(NC(=O)C(S)CCc1ccccc1)C(=O)N[C@@H](Cc1ccc(O)cc1)C(=O)O (stereo partly drawn) [Example 26, N-(2-Mercapto-4-phenylbutanoyl)-Val-Tyr]
[1]; Table III
  IC50: 8 ± 2 nM
[2]; Table III
  IC50: 10 ± 1 nM

## CC(C)C[C@H](NC(=O)C(S)Cc1ccccc1)C(=O)N[C@@H](Cc1ccc(O)cc1)C(=O)O (stereo partly drawn) [Example 23, N-(2-Mercapto-3-phenylpropanoyl)-Leu-Tyr]
[1]; Table III
  IC50: 30 ± 5 nM
[2]; Table III
  IC50: 3 ± 2 nM

## CC(c1ccc(F)c(F)c1)C(CS)C(=O)N[C@@H](Cc1ccc(O)cc1)C(=O)O (stereo partly drawn) [Example 84, N-[2-Mercaptomethyl-3-(3,4-difluorophenyl)-1-oxobutyl]tyrosine]
[1]; Table IV
  IC50: 3.5 nM
[2]; Table IV
  IC50: 6.3 nM

## CCC(C)C(NC(=O)C(S)Cc1ccccc1)C(=O)N1CCCCC1C(=O)O (stereo not drawn) [Example 21, N-(2-Mercapto-3-phenylpropanoyl)-Ile-Pip]
[1]; Table III
  IC50: 2 ± 1 nM
[2]; Table III
  IC50: 5 ± 2 nM

## CC(=O)SCC(C(=O)N[C@@H](C)C(=O)O)C(C)c1ccc(F)cc1 (stereo partly drawn) [Example 78, N-[2-Acetylthiomethyl-3-(4-fluorophenyl)-1-oxobutyl]alanine]
[1]; Table IV
  IC50: 8.5 nM
[2]; Table IV
  IC50: 1.9 nM

## CC(=O)SC(C(=O)N[C@@H](Cc1ccc(O)cc1)C(=O)O)C(C)c1ccc(F)cc1 (stereo partly drawn) [Example 80, N-[2-Acetylthio-3-(4-fluorophenyl)-1-oxobutyl]tyrosine]
[1]; Table IV
  IC50: 5.9 nM
[2]; Table IV
  IC50: 4.8 nM

## CC[C@H](C)[C@H](NC(=O)C(S)c1ccccc1)C(=O)N[C@@H](Cc1ccc(O)cc1)C(=O)O (stereo partly drawn) [Example 28, N-(2-Mercapto-2-phenylacetyl)-Ile-Tyr]
[1]; Table III
  IC50: 3.5 ± 0.5 nM
[2]; Table III
  IC50: 4.5 ± 0.5 nM

## CC[C@H](C)[C@H](NC(=O)C(S)Cc1ccccc1)C(=O)N[C@@H](Cc1ccc(O)cc1)C(=O)OC (stereo partly drawn) [Example 20, N-(2-Mercapto-3-phenylpropanoyl)-Ile-Tyr-OMe]
[1]; Table III
  IC50: 2.5 ± 0.1 nM
[2]; Table III
  IC50: 3.2 ± 0.3 nM

## CC(c1ccc(O)cc1)C(CS)C(=O)N[C@@H](Cc1ccc(O)cc1)C(=O)O (stereo partly drawn) [Example 75, N-[2-Mercaptomethyl-3-(4-hydroxyphenyl)-1-oxobutyl]tyrosine]
[1]; Table IV
  IC50: 3.5 nM
[2]; Table IV
  IC50: 1.8 nM

## CCCC[C@H](NC(=O)C(CS)C(C)c1ccccc1)C(=O)O (stereo partly drawn) [Example 69, N-(2-Mercaptomethyl-1-oxo-3-phenylbutyl)norleucine]
[1]; Table IV
  IC50: 5.8 nM
